System: H460 human lung cancer cells
Assay: Flow cytometry cell cycle arrest analysis after cyclin B1 siRNA delivery
Type: cell-based
Details: [siRNA]=200 nM, [compound b]=100 ng/mL, 24 h, no fetal bovine serum, n=3
Protocol: Flow cytometry for cell cycle analysis. Human lung cancer cells, H460, at 2×10^5 cells/mL were treated with cyclin B1siRNA alone (200 nM) or compound b/siRNA complex ([compound b]=100 ng/mL, [cyclin B1 siRNA]=200 nM) in RPMI 1640 medium for […] at 37° C., 5% CO2(g). After the treatments, cells were washed twice in PBS buffer solution and fixed in cold. PBS solution containing 75% ethanol. After washing with PBS and centrifugation at 1,500 rpm for 5 min, cells were stained with propidium iodide (PI) and analyzed by FACS Calibur (BD PharMingen, N.J., USA) using WinMDI 2.9 analysis software. The cyclic B1 siRNA sequence is 5′-[…]-3 (SEQ ID NO: 1) for sense and 5′-[…]-3 (SEQ ID NO: 2) (NCBI accession number of cyclin B1: NM031966) for anti-sense.
PEI has a high cationic density and can associate with nucleic acids such as siRNA to form a cationic polyplex. The efficiency of the PEI according to the invention as a delivery vehicle for siRNA was examined. Compound b (LPEI) was used to associate with a siRNA for silencing Cyclin B1, which is an indispensable protein for cell mitosis. […] The population proportions of cells were analyzed and summarized in histogram profile (FIG. 4E). […]
H460 lung cancer cells were treated with compound b/siRNA complex for 24 h, and the cell cycle distribution was examined by flow cytometry. […] FL2A: fluorescence pulse area. *p<0.05.

Substance: siRNA alone: cyclin B1 siRNA, sense SEQ ID NO: 1, anti-sense SEQ ID NO: 2 (sense ACAUGAGAGCCAUCCUAAUUGTT; antisense CAAUUAGGAUGGCUCUCAUGUTT; chemistry not given here)
- population in G2/M phase of the cell cycle, increase compared with control: 5.52%±0.406
